Experimental data: patent publication US20230372309A1, “ALPHA-2 ADRENERGIC RECEPTOR ANTAGONIST” (Kyoto University, priority 2020, published 2023)

Experiments:
a2B adrenergic receptor [1] = molecular target: T1, a2B adrenergic receptor (Homo sapiens, UniProt P18089); test: TGFα shedding assay in transfected HEK293 cells, noradrenaline stimulation; type: cell-based; conditions: for IC50: 5 nM Noradrenaline stimulation, HEK293 cells, read-out: IC50, shedding assay, α2B
T1 construct: expressed in transfected cells; host or cells: HEK293
T1 sequence (P18089 1-450): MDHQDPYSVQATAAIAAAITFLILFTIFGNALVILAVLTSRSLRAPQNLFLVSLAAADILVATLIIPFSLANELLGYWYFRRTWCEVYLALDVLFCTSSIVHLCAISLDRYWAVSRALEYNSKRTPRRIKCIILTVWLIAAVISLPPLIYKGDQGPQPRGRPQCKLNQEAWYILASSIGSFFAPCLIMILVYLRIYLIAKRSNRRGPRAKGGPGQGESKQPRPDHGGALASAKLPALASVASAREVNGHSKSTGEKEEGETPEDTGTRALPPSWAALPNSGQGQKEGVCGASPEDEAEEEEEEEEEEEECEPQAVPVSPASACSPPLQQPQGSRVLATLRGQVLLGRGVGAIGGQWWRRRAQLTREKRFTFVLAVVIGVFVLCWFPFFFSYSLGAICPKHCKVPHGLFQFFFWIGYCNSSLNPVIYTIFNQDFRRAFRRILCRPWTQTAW
Description: (§1) The TGFα shedding assay is known as an assay by which a signal transduction pathway of a GPCR can be detected and measured (Patent Document 3). When the signal transduction pathway of a GPCR is activated, fusion proteins of membrane-bound alkaline phosphatase (AP) and TGFα are cleaved by TACE (TNFα converting enzyme), which is a membrane protease, and AP-TGFα is released from the cells. This released AP is measured.
(§2) The TGFα shedding assay was performed according to the method disclosed in WO2015/128894A1.
(§3) Specifically, human embryonic kidney HEK293 cells were transfected with a plasmid vector containing the cDNA of alkaline phosphatase (AP) fused TGFα, a plasmid vector containing the cDNA of a fusion protein (Gaq/i) of an N-terminal peptide fragment of Ga protein Gaq and a C-terminal peptide fragment of Ga protein Gai, and a plasmid vector containing the cDNA of a target GPCR, 24 hours later a compound was added and cultured for 30 minutes, a GPCR agonist (5 nM noradrenaline) was added, one hour later half of the culture supernatant was transferred to a new plate to prepare a supernatant plate, and the remaining plate was used as a cell plate. Ap-nitrophenyl phosphate solution was added to each plate and allowed to stand, and when 0 hours and 2 hours had passed, the absorbance at 405 nm was measured using a plate reader.
(§4) The measured value was converted to AP activity (%) according to the method described in WO2015/128894A1, and the obtained value was used as % Shedding.

a2C adrenergic receptor = molecular target: T2, a2C adrenergic receptor (Homo sapiens, UniProt P18825); test: as above; type: cell-based; conditions: 5 nM Noradrenaline stimulation, read-out: IC50, shedding assay, α2C
T2 construct: expressed in transfected cells; host or cells: HEK293
T2 sequence (P18825 1-462): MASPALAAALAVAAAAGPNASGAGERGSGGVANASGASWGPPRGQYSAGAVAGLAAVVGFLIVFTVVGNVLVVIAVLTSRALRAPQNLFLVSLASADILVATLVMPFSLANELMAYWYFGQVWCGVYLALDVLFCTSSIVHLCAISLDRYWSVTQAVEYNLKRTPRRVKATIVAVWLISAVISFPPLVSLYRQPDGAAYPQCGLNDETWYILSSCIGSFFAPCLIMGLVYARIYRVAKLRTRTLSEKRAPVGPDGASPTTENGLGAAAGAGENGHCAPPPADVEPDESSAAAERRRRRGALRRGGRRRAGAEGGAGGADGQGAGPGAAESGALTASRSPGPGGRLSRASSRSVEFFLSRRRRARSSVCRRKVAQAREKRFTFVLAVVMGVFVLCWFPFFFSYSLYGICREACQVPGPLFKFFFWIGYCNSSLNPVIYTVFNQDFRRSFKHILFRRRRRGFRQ
Description: as §1, §2, §3, §4

a2A adrenergic receptor [2] = molecular target: T3, a2A adrenergic receptor (Homo sapiens, UniProt P08913); test: as above; type: cell-based; conditions: 5 nM Noradrenaline stimulation, read-out: IC50, shedding assay, α2A
T3 construct: expressed in transfected cells; host or cells: HEK293
T3 sequence (P08913 1-465): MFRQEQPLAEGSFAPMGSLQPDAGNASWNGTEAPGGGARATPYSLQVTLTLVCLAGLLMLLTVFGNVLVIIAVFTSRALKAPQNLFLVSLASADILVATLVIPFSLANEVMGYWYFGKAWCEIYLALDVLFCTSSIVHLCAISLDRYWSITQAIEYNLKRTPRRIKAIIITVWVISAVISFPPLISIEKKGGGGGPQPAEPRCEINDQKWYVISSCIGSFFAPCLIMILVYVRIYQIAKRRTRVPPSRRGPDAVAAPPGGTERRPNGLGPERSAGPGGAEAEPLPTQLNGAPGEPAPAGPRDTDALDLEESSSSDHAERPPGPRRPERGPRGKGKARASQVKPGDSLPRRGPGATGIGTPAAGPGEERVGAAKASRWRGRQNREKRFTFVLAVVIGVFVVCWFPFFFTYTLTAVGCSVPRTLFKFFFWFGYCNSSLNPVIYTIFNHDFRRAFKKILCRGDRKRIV
Description: as §1, §2, §3, §4

a2B adrenergic receptor [3] = molecular target: T1, a2B adrenergic receptor; test: Binding affinity to a2 adrenergic receptors, tritium-labeled rauwolscine tracer; conditions: tritium-labeled rauwolscine as tracer
Description: (§5) [Binding Affinity to a2 Adrenergic Receptors]
(§6) The compound 1 was assayed for its inhibitory activity against a2A adrenergic receptor and a2B adrenergic receptor using rauwolscine with a methyl group labeled with tritium as a tracer, and binding affmity was examined. RauwoLscine is an antagonist that specifically binds to a2 adrenergic receptors.

a2A adrenergic receptor [4] = molecular target: T3, a2A adrenergic receptor; test: as above; conditions: tritium-labeled rauwolscine as tracer
Description: as §5, §6

a1B adrenergic receptor = molecular target: T4, a1B adrenergic receptor (Homo sapiens, UniProt P35368); test: Binding affinity to a1 adrenergic receptors, tritium-labeled prazosin tracer; conditions: tritium-labeled prazosin as tracer
T4 sequence (P35368 1-520): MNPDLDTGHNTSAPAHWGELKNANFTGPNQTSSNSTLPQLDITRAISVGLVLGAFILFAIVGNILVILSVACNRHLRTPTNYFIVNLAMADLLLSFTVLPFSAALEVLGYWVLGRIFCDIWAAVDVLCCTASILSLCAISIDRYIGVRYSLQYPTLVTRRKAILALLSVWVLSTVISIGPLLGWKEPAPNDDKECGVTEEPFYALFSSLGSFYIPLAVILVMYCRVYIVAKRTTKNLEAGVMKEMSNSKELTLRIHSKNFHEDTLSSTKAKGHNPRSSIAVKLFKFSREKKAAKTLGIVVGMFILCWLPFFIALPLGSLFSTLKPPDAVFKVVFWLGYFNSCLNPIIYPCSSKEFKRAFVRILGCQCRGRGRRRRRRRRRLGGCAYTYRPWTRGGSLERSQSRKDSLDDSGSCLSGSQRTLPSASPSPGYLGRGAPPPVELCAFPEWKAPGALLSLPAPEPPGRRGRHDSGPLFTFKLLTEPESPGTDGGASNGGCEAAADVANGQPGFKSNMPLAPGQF
Description: (§7) [Binding Affinity to a1 Adrenergic Receptors]
(§8) The compound 1 was assayed for its inhibitory activity against a1A adrenergic receptor and a1B adrenergic receptor using prazosin with a 7-methoxy group labeled with tritium as a tracer, and binding affinity was examined. Prazosin is an antagonist that specifically binds to a1 adrenergic receptors.

a1A adrenergic receptor = molecular target: T5, a1A adrenergic receptor (Homo sapiens, UniProt P35348); test: as above; conditions: tritium-labeled prazosin as tracer
T5 sequence (P35348 1-466): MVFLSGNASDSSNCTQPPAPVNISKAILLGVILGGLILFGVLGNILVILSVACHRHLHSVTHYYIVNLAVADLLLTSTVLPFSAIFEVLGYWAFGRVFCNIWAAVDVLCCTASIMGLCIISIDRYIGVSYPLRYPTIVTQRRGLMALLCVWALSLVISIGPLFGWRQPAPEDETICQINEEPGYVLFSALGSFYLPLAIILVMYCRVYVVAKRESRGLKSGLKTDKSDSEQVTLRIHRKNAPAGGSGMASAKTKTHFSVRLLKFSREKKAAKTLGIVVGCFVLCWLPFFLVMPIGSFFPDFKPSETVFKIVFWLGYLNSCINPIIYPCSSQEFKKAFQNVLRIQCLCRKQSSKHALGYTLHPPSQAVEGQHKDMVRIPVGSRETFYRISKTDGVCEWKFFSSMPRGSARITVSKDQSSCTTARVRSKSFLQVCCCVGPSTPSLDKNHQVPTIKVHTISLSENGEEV
Description: as §7, §8

SMILES	IC50 (a2B adrenergic receptor [1])	IC50 (a2C adrenergic receptor)	IC50 (a2A adrenergic receptor [2])	binding affinity to a2B adrenergic receptor (a2B adrenergic receptor [3])	binding affinity to a2B adrenergic receptor compared with a2A adrenergic receptor (a2B adrenergic receptor [3]; a2B versus a2A)	binding affinity to a2A adrenergic receptor (a2A adrenergic receptor [4])	binding affinity (inhibitory activity) to a2B adrenergic receptor compared with a2A and a2C adrenergic receptor (a2B adrenergic receptor [1]; shedding assay, Table 1, a2B versus a2A and a2C)	binding affinity to the a1B adrenergic receptor (a1B adrenergic receptor)	binding affinity to the a1A adrenergic receptor (a1A adrenergic receptor)
CCN1/C(=C/C(C)=O)Sc2cc(OC)ccc21 [Compound 3, (1Z)-1-(3-ethyl-6-methoxy-2(3H)-benzothiazoylidene)-2-propanone]	> 30 µM	> 30 µM	> 30 µM						
CCN1/C(=C/C(C)=O)Sc2ccc(F)cc21 [Compound 1, (1Z)-1-(3-ethyl-5-fluoro-2(3H)-benzothiazolylidene)-2-propanone]	1.2 µM	> 30 µM	> 30 µM	exhibited selective binding affinity	higher	exhibited selective binding affinity	higher	did not exhibit binding affinity	did not exhibit binding affinity
CCN1/C(=C/C(C)=O)Sc2ccc(OC)cc21 [Compound 2]	> 30 µM	> 30 µM	> 30 µM						
